Reference: PMC5640644, “HDX reveals the conformational dynamics of DNA sequence specific VDR co-activator interactions” (Nature Communications, 2017)

Test system: TRPV6
Experiment: TRPV6 gene activation assay (TRPV6 mRNA, QuantiGene 2.0) in differentiated C2BBe1 cells
Type: cell-based, human
Settings: for Max. Stim., TRPV6 activation: C2BBe1 cells, fold change over DMSO normalized to 1,25D3 = 100%; for EC50: C2BBe1 cells differentiated 6 days, 24 h
Method: C2BBe1 (a clone of CaCO2) cells (CRL-2101, American Type Culture Collection, Manassas, VA) were maintained in DMEM (ATCC 30-2002) supplemented with 10% FBS and insulin-transferrin-selenium-G supplement (Invitrogen, Carlsbad, CA). For TRPV6 expression analysis, cells were plated in 96-well tissue culture treated plates (40,000 per well) in differentiation medium (DMEM containing 5% charcoal-stripped FBS and insulin-transferrin-sodium selenite supplement (ITS)). Cells were allowed to differentiate for 6 days with medium replacement every other day before compound treatment. The medium was removed, and serial dilutions of 1,25D3 or VDRMs in concentrations ranging from 10 μM to 2 nM in differentiation medium were added. After 24 h, the medium was removed, and cell plates were sealed and frozen at −80 °C until assayed. QuantiGene 2.0 Assay Kit (Affymetrix QS0009) was used to quantitate TRPV6 and housekeeping gene GUSB mRNA levels. Following the kit instructions, lysis buffer was added to the frozen cells and incubated briefly at 55 °C […]. Following an overnight incubation the capture plates were washed and the probes amplified following kit instructions. The resulting luminescence signal was detected on an Envision plate reader (Perkin Elmer). TRPV6 signal was normalized using the GUSB signal and the resulting data was fit to a 4-parameter logistic to determine EC50 values.

[1] = Homo sapiens, average of replicate runs

Compound	Max. Stim., TRPV6 activation	EC50 [1]	EC50 (top concentration 10 μM)
CCc1cc(C(CC)(CC)c2ccc(OCC(O)C(C)(C)C)c(C)c2)sc1C(=O)N[C@@H](C)C(=O)O (single isomer, unassigned) [Cmpd2, L-2-[(5-{1-Ethyl-1-[4-(2-hydroxy-3,3-dimethyl-butoxy)-3-methyl-phenyl]-propyl}-3-ethyl-thiophene-2-carbonyl)-amino]-propionic acid]	98.2%	395 nM	–
CCC(CC)(c1ccc(OCC(O)C(C)(C)C)c(C)c1)c1ccc(C(=O)N(C)CC(=O)O)c(C)c1 (stereo not drawn) [Cmpd1, [(4-{1-ethyl-1-[4-(2-hydroxy-3,3-dimethyl-butoxy)-3-methyl-phenyl]-propyl}-2-methyl-benzoyl)-methyl-amino]-acetic acid]	80.3%	63 nM	–
CCC(CC)(c1ccc(OCC(O)C(C)(C)C)c(C)c1)c1cc(C)c(C(=O)Nc2nnn[nH]2)s1 (stereo not drawn) [Cmpd3, 3'-[4-(2-hydroxy-3,3-dimethylbutoxy)-3-methylphenyl]-3'-[5-(tetrazol-5-yl-aminocarbonyl)-4-methylthiophen-2-yl]pentane]	17.4%	–	> 10000 nM
